Results published in ChEMBL document CHEMBL3124894, “Lactam sulfonamides as potent inhibitors of the Kv1.5 potassium ion channel” (Bioorg Med Chem Lett, 2014).
pIC50: −log10 of the molar value.

How the values were obtained:
[1] = molecular target: T1, Potassium voltage-gated channel subfamily A member 5 (Homo sapiens, UniProt P22460); assay: Inhibition of human Kv1.5 ion channel expressed in CHO cells by patch clamp assay; format: cell-based
[2] = Lipophilicity, log D of the compound by chromatography; format: physicochemical
[3] = system: Oryctolagus cuniculus; assay: Cardiotoxicity in New Zealand white rabbit assessed as QT interval at 0.1 to 1 umol/kg/min administered as infusion; format: toxicity, organism-based; conditions: in vivo, iv
[4] = Clearance in Beagle dog at 1 umol/kg, iv and 2 umol/kg, po; format: ADME, organism-based, Canis lupus familiaris; conditions: in vivo
[5] = system: Oryctolagus cuniculus; assay: Antiarrhythmic activity in New Zealand white rabbit assessed as unbound steady-state plasma concentration giving 20% change in atrium effective refractory period at 0.1 to 1 umol/kg/min administered as infusion; format: functional
[6] = Oral bioavailability in Sprague-Dawley rat at 6 umol/kg; format: ADME, organism-based; conditions: in vivo
[7] = Terminal half life in Sprague-Dawley rat at 2 umol/kg, iv and 6 umol/kg, po; format: ADME, organism-based; conditions: in vivo, read-out: beta t1/2 (converted)
[8] = Oral bioavailability in Beagle dog at 2 umol/kg; format: ADME, organism-based, Canis lupus familiaris; conditions: in vivo
[9] = Terminal half life in Beagle dog at 1 umol/kg, iv and 2 umol/kg, po; format: ADME, organism-based, Canis lupus familiaris; conditions: in vivo, read-out: beta t1/2 (converted)
[10] = Clearance in Sprague-Dawley rat at 2 umol/kg, iv and 6 umol/kg, po; format: ADME, organism-based; conditions: in vivo
[11] = system: Oryctolagus cuniculus; assay: Toxicity in New Zealand white rabbit assessed as CNS-like side effects at 0.1 to 1 umol/kg/min administered as infusion; format: organism-based; conditions: in vivo, iv
[12] = Intrinsic clearance in human liver microsomes assessed per mg protein; format: ADME; conditions: read-out: CLH
[13] = molecular target: T1, Potassium voltage-gated channel subfamily A member 5; assay: Inhibition of Kv1.5 ion channel (unknown origin) expressed in CHO cells by Rb(+) efflux assay; format: cell-based

T1 sequence (P22460 whole entry): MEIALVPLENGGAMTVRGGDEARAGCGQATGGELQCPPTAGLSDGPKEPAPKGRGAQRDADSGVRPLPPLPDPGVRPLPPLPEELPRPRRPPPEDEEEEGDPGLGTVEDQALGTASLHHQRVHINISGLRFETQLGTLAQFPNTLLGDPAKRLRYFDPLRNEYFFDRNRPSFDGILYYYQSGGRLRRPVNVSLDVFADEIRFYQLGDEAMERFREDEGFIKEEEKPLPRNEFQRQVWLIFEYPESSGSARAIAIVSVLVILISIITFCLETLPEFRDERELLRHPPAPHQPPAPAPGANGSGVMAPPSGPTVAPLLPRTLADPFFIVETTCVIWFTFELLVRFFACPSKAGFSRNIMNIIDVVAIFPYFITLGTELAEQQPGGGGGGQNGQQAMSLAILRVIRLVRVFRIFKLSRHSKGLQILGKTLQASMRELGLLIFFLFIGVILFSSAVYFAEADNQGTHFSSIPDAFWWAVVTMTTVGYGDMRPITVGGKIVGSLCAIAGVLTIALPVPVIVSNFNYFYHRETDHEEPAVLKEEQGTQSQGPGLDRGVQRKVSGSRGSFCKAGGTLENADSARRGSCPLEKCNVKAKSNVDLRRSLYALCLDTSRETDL

| Compound | pIC50 [1] | chromatographic logD [2] | also measured |
| --- | --- | --- | --- |
| N#Cc1cccc(S(=O)(=O)N(Cc2ccc(F)cc2)C[C@@H]2CCCC(=O)N2)c1 | 5.12 | 2.9 | – |
| N#Cc1cccc(S(=O)(=O)N(CC[C@@H]2CCC(=O)N2)Cc2ccc(F)cc2)c1 | 5.57 | 2.9 | – |
| CCN1C(=O)CC[C@H]1CN(Cc1ccc(F)cc1)S(=O)(=O)c1cccc(C#N)c1 | 5.55 | 3.5 | – |
| N#Cc1cccc(S(=O)(=O)N(CCc2ccc(F)cc2)C[C@@H]2CCC(=O)N2)c1 | < 5.00 | 2.9 | – |
| N#Cc1cccc(S(=O)(=O)N(Cc2cccc(Cl)c2)C[C@@H]2CCC(=O)N2)c1 | 5.37 | 3 | – |
| N#Cc1cccc(S(=O)(=O)N(Cc2ccccc2Cl)C[C@@H]2CCC(=O)N2)c1 | < 5.00 | 2.7 | – |
| O=S(=O)(c1ccccc1F)N(Cc1ccccc1)Cc1ccc(F)cc1 | 5.32 | 6.2 | – |
| O=C1CC[C@@H](CN(Cc2ccc(F)cc2)S(=O)(=O)c2ccc(F)cc2)N1 | 5.39 | 3 | – |
| O=C1CC[C@@H](CN(Cc2ccc(F)cc2)S(=O)(=O)c2ccccc2)N1 | 5.06 | 2.7 | – |
| O=C1CC[C@@H](CN(Cc2ccc(F)cc2)S(=O)(=O)c2cccc(F)c2)N1 | 5.14 | 3.1 | – |
| O=C1CC[C@@H](CN(Cc2ccc(F)cc2)S(=O)(=O)c2cc(Cl)cc(Cl)c2)N1 | 5.09 | 4.4 | – |
| O=C1CC[C@@H](CN(Cc2ccc(F)cc2)S(=O)(=O)c2cccc3c2OCCO3)N1 | < 5.00 | 3 | – |
| CS(=O)(=O)c1cccc(S(=O)(=O)N(Cc2ccc(F)cc2)C[C@@H]2CCC(=O)N2)c1 | 5.06 | 2 | – |
| N#Cc1ccc(S(=O)(=O)N(Cc2ccc(F)cc2)C[C@@H]2CCC(=O)N2)cc1 | < 4.52 | 2.6 | – |
| N#Cc1ccccc1S(=O)(=O)N(Cc1ccc(F)cc1)C[C@@H]1CCC(=O)N1 | < 4.52 | 2.5 | – |
| N#Cc1cccc(S(=O)(=O)N(Cc2ccc(F)cc2)C[C@H]2CCC(=O)N2)c1 | 5.06 | 2.5 | – |
| COc1ccc(S(=O)(=O)N[C@H]2CCCC[C@@H]2OCc2ccccc2)cc1 (racemic) | – | – | pIC50 [13]: 4.55 |
| COc1ccc(S(=O)(=O)N(Cc2ccccc2)[C@H]2CCCC[C@@H]2O)cc1 (racemic) | – | 4.6 | pIC50 [13]: 5.70 |

The remaining molecules from weak to strong by pIC50 [1], led by results:

| pIC50 [1] | chromatographic logD [2] | Compound | also measured |
| --- | --- | --- | --- |
| 5.59 | 2.7 | N#Cc1cccc(S(=O)(=O)N(Cc2ccc(F)cc2)C[C@@H]2CCC(=O)N2)c1 | – |
| 5.66 | 3.1 | N#Cc1cccc(S(=O)(=O)N(Cc2ccc(Cl)cc2)C[C@@H]2CCC(=O)N2)c1 | – |
| 5.66 | 3.4 | NC(=O)c1ccc(N(Cc2ccc(F)cc2)S(=O)(=O)c2ccccc2F)cc1 | – |
| 5.70 | 4.7 | O=S(=O)(c1ccc(F)cc1)N(Cc1ccc(F)cc1)Cc1ccccn1 | – |
| 5.70 | 3.1 | COc1cccc(S(=O)(=O)N(Cc2ccc(F)cc2)C[C@@H]2CCC(=O)N2)c1 | – |
| 6.09 | 3.1 | CN1C(=O)CC[C@H]1CN(Cc1ccc(F)cc1)S(=O)(=O)c1cccc(C#N)c1 | – |
| 6.10 | 3.6 | O=C1CC[C@@H](CN(Cc2ccc(F)cc2)S(=O)(=O)c2cccc(Cl)c2)N1 | – |
| 6.68 | 3.6 | CN1C(=O)CC[C@H]1CN(Cc1ccc(Cl)cc1)S(=O)(=O)c1cccc(C#N)c1 | Time [3]: < 10 ms; clearance [4]: 31 mL/min/kg; Cp(f)ss [5]: 0.35 µM; bioavailability [6]: 45%; half-life [7]: 31.8 min; bioavailability [8]: 44%; half-life [9]: 52.2 min; clearance [10]: 45 mL/min/kg; Activity [11]: Non-toxic; microsomal CLint [12]: 116 µL/min/mg |
